Reference: US20180200223A1, “APPLICATION OF NARINGENIN AND NARINGIN IN TUMOR RADIOTHERAPY” (INSTITUTE OF BIOPHYSICS CHINESE ACADEMY OF SCIENCES, priority 2015, published 2018)

Tests used:
[1] = Total antioxidant capacity (FRAP method); settings: 27 μM, absorbance 593 nm
Procedure: The total antioxidant capacity of several flavonoids was detected by the total antioxidant capacity test kit (FRAP method). The principle of the FRAP method is that the antioxidant can reduce ferric-tripyridyltriazine (Fe^3+-TPTZ) to produce a blue Fe^2+-TPTZ under an acidic condition. Measuring the blue Fe^2+-TPTZ at a wavelength of 593 nm to access the antioxidant capacity of the sample. Since the reaction is carried out under an acidic condition, some of the endogenous interference factors can be excluded. (1) Prepare proper amount of FRAP working solution according to the samples numbers referring to the following table. The FRAP working solution was incubated at 37° C. and used no longer than 1-2 hours. Prepare 10 species of flavonoids: quercetin (Que), daidzein (Dai), kaempferol (Kae), apigenin (Api), naringenin (Nar), genistein (Gen), hesperidin (Her), luteolin (Lut), chrysin (Chr) and nobiletin (Nob). Make the final concentration of each flavonoid to 27 μM. Dissolve 27.8 mg of FeSO4.7H2O provided by this kit and dilute to 1 ml to make the concentration to 100 mM. Take an appropriate amount of FeSO4 solution and dilute it to 0.15, 0.3, 0.6, 1.2 and 1.5 mM, respectively. Distilled water or sample preparation solution was used for the preparation of the standards. […] (3) Incubate the plate at 37° C. for 3-5 min, and then determine the absorbance at 593 nm. […]

[2] = tested on: 4T1 breast tumor with lung metastasis; test: Survival of mice bearing 4T1 breast tumor with lung metastasis after radiotherapy; type: in vivo, Balb/c mice
Procedure: (1) Resuscitation and culture of 4T1 cells: Cell culture hood need to be sterilized by UV for 30 min before resuscitating the 4T1 cells. Equilibrate the RPMI 1640 culture medium (containing 10% fetal bovine serum) to room temperature for further application. The cryovial containing tumor cells are taken from liquid nitrogen storage and immediately put into a 37° C. water bath, shaking quickly until the cells are completely dissolved. Transfer the cells into a cell culture flask with 10-15 ml medium to suspend the sedimentary cells. After adjusting the concentration of the cells, culture the cells in an incubator with a saturated humidified atmosphere containing 5% (v/v) CO2 at 37° C. Replace fresh medium every day during. Digest the cells by 0.25% trypsin when the convergence of the cells reaches 90%, and then subculture the cells at a ratio of 1:3. On the day of experiment, we collect the cells by digesting the cells with 0.25% trypsin, then neutralize the trypsin with RPMI 1640 with 10% fetal bovine serum. Centrifuge the cells at 800 rpm, and then resuspend the cells in sterile PBS. After counting the density of cells, adjust the cells to 1×10^5/ml for tumor cells inoculation. (2) 4T1 cells are mixed well before inoculation. Pipet 0.3 ml of cells by a 1 ml sterile syringe, and inject 0.1 ml of cells per mouse (namely 1×10^4 4 T1 cells per mouse). (1) 4T1 murine breast tumor cell line was intravenously injected to form lung metastatic tumors in Balb/c mice. Lung metastatic nodules would develop about 10-15 days after 1×10^4 4 T1 cells were inoculated. (2) Set the day of inoculation as day 0, at day 12 after inoculation, different doses of naringenin (Nar), namely 50, 100 and 200 mg/kg (suspended in 1% CMC-Na), were administered orally. The mice received γ-ray irradiation (8 Gy×2 f) at day 14 and day 15 after inoculation. […] The administration of either naringenin or dexamethasone plus cefixime continued until the mice started to die, and the survivals were observed and recorded. […]

[3] = tested on: inflammatory cytokine IL-1β; test: DNA fragment-induced IL-1β release from primary peritoneal macrophages (ELISA); type: cell-based, mouse; settings: 100 μM pretreatment 2 h, DNA fragments 100 ng/mL 24 h, supernatant ELISA
Procedure: 4% Brewer thioglycollate medium (1.5 ml/mouse) was intraperitoneally injected. Four days later, washing the abdominal cavity of these mice with serum-free medium (DMEM) (10 ml/mouse). The lavage fluids were collected and centrifuged at 1300 rpm for 5 minutes. The cell pellet was resuspended and seeded into a 24-well plate at the concentration of 2×10^6 cells/well. Two hours later, the non-adherent cells were carefully removed and the remaining adherent cells are primary peritoneal macrophages. Identification: Macrophage surface marker F4/80 was detected by flow cytometry using PE-labelled anti-F4/80 antibody (ebioscience). […] Sample treatment: The macrophages were pretreated with 100 μM naringenin (Nar) for 2 h, and then were stimulated with DNA fragments (100 ng/mL) for 24h. The supernatants were collected and the concentration of inflammatory cytokine IL-1β (pg/mL) in the supernatant was measured by ELISA.

LLC lung tumor = LLC lung tumor bearing mice with lung irradiation; type: in vivo, C57B6/L mice
Excerpt: (1) LLC murine lung cancer cell line was used to intravenously inoculate the C57B6/L mice to form lung metastatic tumors. About 24 days after 5×10^5 LLC cells were inoculated, nodules in the lung would develop. (2) The mice were divided into 4 groups, and each group contains 10 mice. The grouping methods are as followed: 1) Normal control group (Normal); 2) LLC tumor-bearing mice without irradiation group (LLC); 3) LLC tumor-bearing mice receiving lung irradiation without naringenin administration group (LLC+IR); 4) LLC tumor-bearing mice receiving lung irradiation with naringenin (Nar) administration group (LLC+IR+Nar); Set the day of inoculation as day 0. (6) 100 mg/kg naringenin (Nar) (suspended in 1% CMC-Na) was administered orally to each of the mice in LLC+IR+Nar group at day 12 after inoculation (namely 3 days before lung irradiation); (7) The mice received γ-ray irradiation with a dose of 12 Gy per mouse per time at day 14 after inoculation; (8) Continue to orally administrate 100 mg/kg naringenin (Nar) (suspended in 1% CMC-Na) to each of the mice in LLC+IR+Nar group at day 15 day after inoculation (namely 1 day after lung irradiation); (9) At day 21 after inoculation, 5 animals in each group were randomly selected for sample collection. After dissection, the blood and lung tissues were collected, and the lungs were weighed. Then the number of tumor nodules in the lungs were counted without destroying the complete structure of lung tissues. (10) At day 37 after inoculation, the remaining animals in each group were sacrificed and dissected. The blood and lung tissues were collected, and the lungs were weighed. Then the number of tumor nodules in the lungs were counted without destroying the complete structure of lung tissues. Serum was separated and assayed for inflammatory cytokines such as IL-6, IL-113, IFN-γ, etc. The lung tissues were used for biopsy and the observation of lung injury and inflammatory cells infiltration. […]

[4] = tested on: 4T1 breast tumor with lung metastasis; test: 4T1 breast tumor lung metastasis mice with lung irradiation: lung injury, nodules, cytokines; type: in vivo, Balb/C mice
Procedure: (1) Resuscitation and culture of 4T1 cells: Cell culture hood need to be sterilized by UV for 30 min before resuscitating the 4T1 cells. Equilibrate the RPMI 1640 culture medium (containing 10% fetal bovine serum) to room temperature for further application. The cryovial containing tumor cells are taken from liquid nitrogen storage and immediately put into a 37° C. water bath, shaking quickly until the cells are completely dissolved. Transfer the cells into a cell culture flask with 10-15 ml medium to suspend the sedimentary cells. After adjusting the concentration of the cells, culture the cells in an incubator with a saturated humidified atmosphere containing 5% (v/v) CO2 at 37° C. Replace fresh medium every day during. Digest the cells by 0.25% trypsin when the convergence of the cells reaches 90%, and then subculture the cells at a ratio of 1:3. On the day of experiment, we collect the cells by digesting the cells with 0.25% trypsin, then neutralize the trypsin with RPMI 1640 with 10% fetal bovine serum. Centrifuge the cells at 800 rpm, and then resuspend the cells in sterile PBS. After counting the density of cells, adjust the cells to 1×10^5/ml for tumor cells inoculation. (2) 4T1 cells are mixed well before inoculation. Pipet 0.3 ml of cells by a 1 ml sterile syringe, and inject 0.1 ml of cells per mouse (namely 1×10^4 4 T1 cells per mouse). (1) 4T1 murine breast tumor cell line was used to inoculate the tail vein of Balb/C mice to form lung metastatic tumors. 1×10^4 4 T1 cells were intravenously injected into the tail vein per mouse, and 10-15 days later nodules would develop in lung. (2) Set the day of inoculation as day 0. 200 mg/kg naringenin (Nar) (suspended in 1% CMC-Na) was administered orally to the mice at day 12 day after inoculation, namely 3 days before irradiation on the lungs. The mice received a 12 Gy of γ-ray irradiation once at day 14 after inoculation and keep naringenin administration. A part of the mice in each group were sacrificed at day 28 after inoculation and the blood, lung tissues were collected while the lungs were weighed. The tumor nodules in the lungs were observed under the condition of without destroying the integrity of lung tissues. Serum were separated and assayed for cytokines such as IL-6, IL-113, IFN-γ, etc. The lung tissues collected at day 28 after inoculation were used for biopsy and the observation of lung injury as well as inflammatory cells infiltration. The rest animals were used for survival observation. The mice in this experiment are separated into 4 groups as follows: • 1) Normal control group (Normal) • 2) 4T1 tumor-bearing mice without irradiation group (4T1) • 3) 4T1 tumor-bearing mice receiving lung irradiation without naringenin administration group (4T1+IR) • 4) 4T1 tumor-bearing mice receiving lung irradiation with naringenin administration group (4T1+IR+Nar) 3 groups of mice were inoculated with 4T1 tumor cells. Each group contains 12 mice with half male and half female which were fed in separate cages, and each cage contains 6 mice.

[5] = 200 mg/kg oral, 12 Gy γ-ray, compared to 4T1+IR group

O=C1C[C@@H](c2ccc(O)cc2)Oc2cc(O)cc(O)c21 [naringenin]
antioxidant capacity [1]: very weak | survival of tumor-bearing mice compared with positive drugs (DXM+CXL) ([2]; 100 mg/kg oral vs dexamethasone 0.25 mg/kg plus cefixime 200 mg/kg): improvement in the survival | sensitizing/synergizing effect combined with radiotherapy (survival) ([2]; 100 mg/kg oral, compared among the 3 doses): highest sensitizing/synergizing effect | survival of tumor-bearing mice ([2]; 50, 100 and 200 mg/kg oral, γ-ray 8 Gy×2 f, compared with 4T1+IR group): significantly prolonged | release of inflammatory cytokine IL-1β [3]: significantly reduces | number of tumor nodules in lungs (LLC lung tumor; 100 mg/kg oral, 12 Gy γ-ray at day 14, compared to LLC and LLC+IR group): significantly decreased | lung injury (pathological analysis) (LLC lung tumor; 100 mg/kg oral, 12 Gy γ-ray, LLC+IR+Nar vs LLC+IR): significantly alleviated | survival of mice bearing LLC lung tumor after radiotherapy (LLC lung tumor; FIG. 5 legend): prolongs the survival | number of tumor nodules in lungs ([4]; 200 mg/kg oral from day 12, 12 Gy γ-ray at day 14, day 28, compared to 4T1 group and 4T1+IR group): decreased | lung injury and fibrosis (pathological analysis) ([4]; 200 mg/kg oral, 12 Gy γ-ray, day 28, 4T1+IR+Nar vs 4T1+IR): markedly alleviated | serum level of IFN-γ [4, 5]: significantly changed | serum level of IL-1β [4, 5]: significantly changed | serum level of IL-6 [4, 5]: significantly changed
